Test results as given in US10173996B2, “Histone demethylase inhibitors” (CELGENE QUANTICEL RESEARCH, INC., priority 2012, dated 2019).

Test system: KDM5A and KDM5B (tri-methyl H3K4, ZR-75-1 breast cancer cell line)
Experiment: In vitro cell-based assay: tri-methyl H3K4 immuno-blotting in ZR-75-1 breast cancer cells
Details: Homo sapiens, 72 hours with test compound, read-out: Cellular IC50
From the text: This quantitative immuno-blotting assay measures the amount tri-methylated histone H3 at amino acid Lysine number 4, a specific substrate […] of the direct enzymatic activity of the histone demethylases KDM5A and KDM5B from extracts of the ZR-75-1 breast cancer cell line.
This assay is a fluorometric immunoassay for the quantification of tri-methyl H3K4 extracted from cells treated with test compound and is used as a measure of the cellular inhibition of KDM5A/B.
ZR-75-1(PTEN null, ER+) breast cancer cells numbering 50,000 (ATCC) were seeded into each well of a 96-well tissue culture treated plate and then exposed to an 11 point dilution of test compound with final concentration ranges of test compound ranging from […] to 10 nM. […] Extracts were prepared containing all of the cellular histone material using detergent based lysis and sonication methods. These lysates were subsequently normalized for total protein content using a colorimetric bicinchonic acid assay (MicroBCA Pierce/Thermo Scientific). Normalized cell extracts were then subjected to typical immuno-blotting procedures using NuPage reagents (Life Technologies). Electrophoretically separated histones were then transferred and immobilized using polyvinylidene difluoride membrane (Immobilon-FL Millipore). The amount of tri-methylated lysine 4 of histone H3 was detected using an antibody specific to the tri-methylated state (Cell Signaling Technologies) and quantified on an infrared imager using a densitometry software package (Odyssey CLx, Image Studio, Li-Cor). This background subtracted densitometry value was reported as a ration of the GAPDH amount for that sample and then calculated as a percent of the DMSO treated sample. The software package XL-fit (IDBS) was then used to calculate a relative IC50 value for the dilution series of a given test compound according to the equation: fit=(D+((Vmax*(x^n))/((x^n)+(Km^n)))).

Row | Compound | IC50 [nM]
1 | O=C(O)c1ccnc(-n2nccc2OCc2ccc(F)c(F)c2)c1 [Example 52, 2-{5-[(3,4-difluorobenzyl)oxy]-1H-pyrazol-1-yl}pyridine-4-carboxylic acid] | 100 to 1000
2 | O=C(O)c1ccnc(-n2nccc2OCc2ccc(Cl)cc2)c1 [Example 53, 2-{5-[(4-chlorobenzyl)oxy]-1H-pyrazol-1-yl}pyridine-4-carboxylic acid] | 100 to 1000
3 | Cc1ccc(COc2ccnn2-c2cc(C(=O)O)ccn2)cc1 [Example 55, 2-{5-[(4-methylbenzyl)oxy]-1H-pyrazol-1-yl}pyridine-4-carboxylic acid] | 100 to 1000
4 | CCc1ccc(COc2ccnn2-c2cc(C(=O)O)ccn2)cc1 [Example 56, 2-{5-[(4-ethylbenzyl)oxy]-1H-pyrazol-1-yl}pyridine-4-carboxylic acid] | 100 to 1000
5 | O=C(O)c1ccnc(-n2nccc2OCc2cccc(Cl)c2)c1 [Example 58, 2-{5-[(3-chlorobenzyl)oxy]-1H-pyrazol-1-yl}pyridine-4-carboxylic acid] | 100 to 1000
6 | COC(=O)c1ccnc(-n2nccc2OCc2ccc(F)c(F)c2)c1 [Example 63, methyl 2-{5-[(3,4-difluorobenzyl)oxy]-1H-pyrazol-1-yl}pyridine-4-carboxylate] | 100 to 1000
7 | O=C(O)c1ccnc(-n2nccc2OCC2CCC(F)(F)CC2)c1 [Example 71, 2-{5-[(4,4-difluorocyclohexyl)methoxy]-1H-pyrazol-1-yl}pyridine-4-carboxylic acid] | 1000 to 10000
8 | O=C(O)c1ccnc(-n2nccc2OCc2ccc(F)cc2F)c1 [Example 86, 2-[5-[(2,4-difluorophenyl)methoxy]pyrazol-1-yl]pyridine-4-carboxylic acid] | 1000 to 10000
9 | Cc1ccc(COc2ccnn2-c2cc(C(=O)O)ccn2)cc1Cl [Example 92, 2-[5-[(3-chloro-4-methylphenyl)methoxy]pyrazol-1-yl]pyridine-4-carboxylic acid] | 100 to 1000
10 | Cc1ccc(COc2ccnn2-c2cc(C(=O)O)ccn2)cc1F [Example 93, 2-[5-[(3-fluoro-4-methylphenyl)methoxy]pyrazol-1-yl]pyridine-4-carboxylic acid] | 100 to 1000
11 | COC(=O)c1ccnc(-n2nccc2OCc2ccc(C#N)cc2)c1 [Example 98, methyl 2-[5-[(4-cyanophenyl)methoxy]pyrazol-1-yl]pyridine-4-carboxylate] | 1000 to 10000
12 | O=C(O)c1ccnc(-n2nccc2OCc2ccc(F)cc2CCc2ccc(F)cc2)c1 [Example 121, 2-[5-[[4-fluoro-2-[2-(4-fluorophenyl)ethyl]phenyl]methoxy]pyrazol-1-yl]pyridine-4-carboxylic acid] | 1000 to 10000
13 | CCc1cc(C#N)ccc1COc1ccnn1-c1cc(C(=O)O)ccn1 [Example 126, 2-[5-[(4-cyano-2-ethylphenyl)methoxy]pyrazol-1-yl]pyridine-4-carboxylic acid] | > 10000
14 | CCc1cc(F)ccc1COc1ccnn1-c1cc(C(=O)O)ccn1 [Example 129, 2-[5-[(2-ethyl-4-fluorophenyl)methoxy]pyrazol-1-yl]pyridine-4-carboxylic acid] | 1000 to 10000
15 | CC(Oc1cc(Cl)ccc1COc1ccnn1-c1cc(C(=O)O)ccn1)c1ccccc1 (centres unmarked) [Example 136, 2-[5-[[4-chloro-2-(1-phenylethoxy)phenyl]methoxy]pyrazol-1-yl]pyridine-4-carboxylic acid] | 1000 to 10000
16 | CC(Oc1cc(F)ccc1COc1ccnn1-c1cc(C(=O)O)ccn1)c1ccccc1 (centres unmarked) [Example 137, 2-[5-[[4-fluoro-2-(1-phenylethoxy)phenyl]methoxy]pyrazol-1-yl]pyridine-4-carboxylic acid] | 1000 to 10000
17 | O=C(O)c1ccnc(-n2nccc2OCc2ccc(Cl)c(OCc3ccc(F)cc3)c2)c1 [Example 138, 2-[5-[[4-chloro-3-[(4-fluorophenyl)methoxy]phenyl]methoxy]pyrazol-1-yl]pyridine-4-carboxylic acid] | 1000 to 10000
18 | O=C(O)c1ccnc(-n2nccc2OCc2ccc(Cl)c(OCC(F)(F)F)c2)c1 [Example 141, 2-[5-[[4-chloro-3-(2,2,2-trifluoroethoxy)phenyl]methoxy]pyrazol-1-yl]pyridine-4-carboxylic acid] | 1000 to 10000
19 | COc1cc(I)ccc1COc1ccnn1-c1cc(C(=O)O)ccn1 [Example 145, 2-[5-[(4-iodo-2-methoxyphenyl)methoxy]pyrazol-1-yl]pyridine-4-carboxylic acid] | 1000 to 10000
20 | CCc1ccc(COc2ccnn2-c2cc(C(=O)O)ccn2)c(F)c1 [Example 151, 2-[5-[(4-ethyl-2-fluorophenyl)methoxy]pyrazol-1-yl]pyridine-4-carboxylic acid] | 1000 to 10000

The next lines start with the values.

Row | IC50 [nM] | Compound
21 | 1000 to 10000 | O=C(O)c1ccnc(-n2nccc2OCc2ccccc2)c1 [Example 39, 2-(5-(benzyloxy)-1H-pyrazol-1-yl)isonicotinic acid]
22 | 100 to 1000 | O=C(O)c1ccnc(-n2nccc2OCc2ccc(F)cc2)c1 [Example 40, 2-{5-[(4-fluorobenzyl)oxy]-1H-pyrazol-1-yl}pyridine-4-carboxylic acid]
23 | > 10000 | O=C(O)c1ccnc(-n2nccc2OCc2cccc(F)c2)c1 [Example 41, 2-{5-[(3-fluorobenzyl)oxy]-1H-pyrazol-1-yl}pyridine-4-carboxylic acid]
24 | 100 to 1000 | COC(=O)c1ccnc(-n2nccc2OCc2ccc(Cl)cc2)c1 [Example 64, Methyl 2-{5-[(4-chlorobenzyl)oxy]-1H-pyrazol-1-yl}pyridine-4-carboxylate]
25 | 1000 to 10000 | O=C(O)c1ccnc(-n2nccc2OCc2ccc(Cl)cc2F)c1 [Example 75, 2-{5-[(4-chloro-2-fluorobenzyl)oxy]-1H-pyrazol-1-yl}pyridine-4-carboxylic acid]
26 | 1000 to 10000 | O=C(O)c1ccnc(-n2nccc2OCc2ccc(F)c(Cl)c2)c1 [Example 76, 2-{5-[(3-chloro-4-fluorobenzyl)oxy]-1H-pyrazol-1-yl}pyridine-4-carboxylic acid]
27 | 100 to 1000 | COc1cc(Cl)ccc1COc1ccnn1-c1cc(C(=O)O)ccn1 [Example 90, 2-[5-[(4-chloro-2-methoxyphenyl)methoxy]pyrazol-1-yl]pyridine-4-carboxylic acid]
28 | 1000 to 10000 | Cc1ccc(COc2ccnn2-c2cc(C(=O)O)ccn2)c(F)c1F [Example 94, 2-[5-[(2,3-difluoro-4-methylphenyl)methoxy]pyrazol-1-yl]pyridine-4-carboxylic acid]
29 | 100 to 1000 | N#Cc1ccc(COc2ccnn2-c2cc(C(=O)O)ccn2)cc1 [Example 99, 2-[5-[(4-cyanophenyl)methoxy]pyrazol-1-yl]pyridine-4-carboxylic acid]
30 | 1000 to 10000 | O=C(O)c1ccnc(-n2nccc2OCc2ccc(F)cc2OCc2ccc(F)cc2)c1 [Example 118, 2-[5-[[4-fluoro-2-[(4-fluorophenyl)methoxy]phenyl]methoxy]pyrazol-1-yl]pyridine-4-carboxylic acid]
31 | 100 to 1000 | Cc1cc(F)ccc1COc1ccnn1-c1cc(C(=O)O)ccn1 [Example 128, 2-[5-[(4-fluoro-2-methylphenyl)methoxy]pyrazol-1-yl]pyridine-4-carboxylic acid]
32 | 1000 to 10000 | Cc1ccc(COc2ccnn2-c2cc(C(=O)O)ccn2)c(Cl)c1 [Example 130, 2-[5-[(2-chloro-4-methylphenyl)methoxy]pyrazol-1-yl]pyridine-4-carboxylic acid]
33 | 1000 to 10000 | Cc1ccc(COc2ccnn2-c2cc(C(=O)O)ccn2)c(F)c1 [Example 131, 2-[5-[(2-fluoro-4-methylphenyl)methoxy]pyrazol-1-yl]pyridine-4-carboxylic acid]
34 | 100 to 1000 | Cc1ccc(COc2ccnn2-c2cc(C(=O)O)ccn2)c(C)c1 [Example 132, 2-[5-[(2,4-dimethylphenyl)methoxy]pyrazol-1-yl]pyridine-4-carboxylic acid]
35 | 1000 to 10000 | Cc1ccc(COc2ccnn2-c2cc(C(=O)O)ccn2)c(C#N)c1 [Example 134, 2-[5-[(2-cyano-4-methylphenyl)methoxy]pyrazol-1-yl]pyridine-4-carboxylic acid]
36 | 1000 to 10000 | O=C(O)c1ccnc(-n2nccc2OCc2ccc(Cl)c(OCC3CC3)c2)c1 [Example 140, 2-[5-[[4-chloro-3-(cyclopropylmethoxy)phenyl]methoxy]pyrazol-1-yl]pyridine-4-carboxylic acid]
37 | 1000 to 10000 | Cc1cc(Br)ccc1COc1ccnn1-c1cc(C(=O)O)ccn1 [Example 142, 2-[5-[(4-bromo-2-methylphenyl)methoxy]pyrazol-1-yl]pyridine-4-carboxylic acid]
38 | 1000 to 10000 | Cc1cc(I)ccc1COc1ccnn1-c1cc(C(=O)O)ccn1 [Example 144, 2-[5-[(4-iodo-2-methylphenyl)methoxy]pyrazol-1-yl]pyridine-4-carboxylic acid]
